Assay: Photophysical properties of PEMCs (UV-vis absorption, fluorescence, QY)
Type: physicochemical
Method: Chemicals, including solvents, were purchased from Fisher Scientific and used as received. Deuterated solvents were purchased from Cambridge Isotope Laboratories (Cambridge, Mass.). All chemicals and solvents were purchased and used without further purification. Nuclear magnetic resonance (NMR) spectra were recorded on a 400 MHz Avance Bruker NMR spectrometer. ^1H and ^13C NMR chemical shifts are given in ppm relative to Si(CH3)4. The mass spectrometric data were conducted on a Bruker Solarix FT-ICRMS. Data for crystal structure was obtained on a Bruker D8 Quest CMOS diffractometer. The crystal was kept at T=296(2) K during data collection. Using APEX3, the structure was solved with the ShelXT 2014/5 structure solution program, using the intrinsic phasing method. The model was refined with version 2016/6 of ShelXL using full matrix least squares on F^2 minimization, using the Olex2 GUI. Analytical thin layer chromatography (TLC) was performed on TLC Silica gel 60 F254. […] UV-vis spectra were recorded on a Varian Cary 50 Bio spectrophotometer. Fluorescence spectra were obtained using a FluoroLog-3 Spectrofluorometer (Jobin Yvon/Horiba). 9,10-diphenylanthracene (QY=1.0) in cyclohexane was used as a fluorescence standard for QY determination. Fourier transform infrared (FTIR) spectra were recorded on a PerkinElmer Spectrum 100 FTIR Spectrometer. […]

Extinction coefficient (ε): 62700 M⁻¹ cm⁻¹ | Quantum Yield (QY) (9,10-Diphenylanthracene (QY = 1.0) in cyclohexane as fluorescence standard): 31%
SMILES: COc1cc(C#Cc2ccc(C=O)cc2)c(OC)cc1C#Cc1ccc(C=O)cc1 [1a, 4,4′-((2,5-dimethoxy-1,4-phenylene)bis(ethyne-2,1-diyl))dibenzaldehyde]

Reference: patent US11480576B2, “Conjugated oligomer-based macrocycles for live cell imaging” (THE FLORIDA INTERNATIONAL UNIVERSITY BOARD OF TRUSTEES, priority 2019, dated 2022)
